The subject of series [1] is Pseudotyped vesicular stomatitis virus (VSV) carrying a codon-optimized S protein of the Wuhan SARS-CoV-2 strain. The series is classed as cell-based. Particulars: read-out: IC50 (µM) Pseudotype VSV (Vero).
The test system is the same in series [2]. The series is classed as cell-based. To be noted: read-out: IC50 (µM) Pseudotype VSV (A549ACE2-TM PRSS2).
A short description of series [3]: in vitro. To be noted: monkey, vero cells.
The nature of series [4]: in vitro. To be noted: human, a549-ace2-tmprss2 cells.
Series [5] is described as follows: in vitro. To be noted: monkey, vero-e6 cells.

Each structure is given as a SMILES string. Read-outs that look alike come from different tables or passages of the source.

Usually IC50 stands for the point on the concentration scale where inhibition reaches its midpoint. In general, CC50 refers to the concentration giving 50% cytotoxicity. `NCC(=O)NC(CCC(=O)N[C@@H](Cc1c(Sc2ccc([N+](=O)[O-])cc2)[nH]c2ccccc12)C(=O)O)(CCC(=O)N[C@@H](Cc1c(Sc2ccc([N+](=O)[O-])cc2)[nH]c2ccccc12)C(=O)O)CCC(=O)N[C@@H](Cc1c(Sc2ccc([N+](=O)[O-])cc2)[nH]c2ccccc12)C(=O)O` [Compound 7a]: the IC50 in series [1] worked out at 0.23 µM; in series [2] it was 2.4 µM. Further, the CC50 in the series “in vitro [3]” and in “in vitro [4]” was above 100 µM throughout. The CC50 at 24 h in “in vitro [5]” is above 100 µM.
For `NCC(=O)NC(CCC(=O)N[C@@H](Cc1c(Sc2cccc([N+](=O)[O-])c2)[nH]c2ccccc12)C(=O)O)(CCC(=O)N[C@@H](Cc1c(Sc2cccc([N+](=O)[O-])c2)[nH]c2ccccc12)C(=O)O)CCC(=O)N[C@@H](Cc1c(Sc2cccc([N+](=O)[O-])c2)[nH]c2ccccc12)C(=O)O` [Compound 7b], the IC50 came out at 13 µM in series [1] and 6.44 µM in series [2]. Further, the CC50 in the series “in vitro [3]” and in “in vitro [4]” was above 100 µM throughout.
Regarding `CC(=O)c1ccc(Sc2[nH]c3ccccc3c2C[C@H](NC(=O)CCC(CCC(=O)N[C@@H](Cc2c(Sc3ccc(C(C)=O)cc3)[nH]c3ccccc23)C(=O)O)(CCC(=O)N[C@@H](Cc2c(Sc3ccc(C(C)=O)cc3)[nH]c3ccccc23)C(=O)O)NC(=O)CN)C(=O)O)cc1` [Compound 7c], the IC50 in series [1] amounted to 1.4 µM; in series [2], 1.94 µM. Besides, the CC50 in “in vitro [3]” and in the series “in vitro [4]” was above 100 µM in each case. Also, the CC50 at 24 h in “in vitro [5]” was above 100 µM.
For the molecule `NCC(=O)NC(CCC(=O)N[C@@H](Cc1c(Sc2ccc(C(F)(F)F)cc2)[nH]c2ccccc12)C(=O)O)(CCC(=O)N[C@@H](Cc1c(Sc2ccc(C(F)(F)F)cc2)[nH]c2ccccc12)C(=O)O)CCC(=O)N[C@@H](Cc1c(Sc2ccc(C(F)(F)F)cc2)[nH]c2ccccc12)C(=O)O` [Compound 7d], the IC50 came to 15.1 µM in series [1] and 9.35 µM in series [2]. Besides, the CC50 in the series “in vitro [3]” and in “in vitro [4]” was above 100 µM throughout.
With `N#Cc1ccc(Sc2[nH]c3ccccc3c2C[C@H](NC(=O)CCC(CCC(=O)N[C@@H](Cc2c(Sc3ccc(C#N)cc3)[nH]c3ccccc23)C(=O)O)(CCC(=O)N[C@@H](Cc2c(Sc3ccc(C#N)cc3)[nH]c3ccccc23)C(=O)O)NC(=O)CN)C(=O)O)cc1` [Compound 7e], the IC50 in series [1] came to 13.9 µM; in series [2], 8.8 µM. Further, the CC50 in “in vitro [3]” and in the series “in vitro [4]” was above 100 µM throughout.
On to `NCC(=O)NC(CCC(=O)N[C@@H](Cc1c(Sc2ccc(F)cc2)[nH]c2ccccc12)C(=O)O)(CCC(=O)N[C@@H](Cc1c(Sc2ccc(F)cc2)[nH]c2ccccc12)C(=O)O)CCC(=O)N[C@@H](Cc1c(Sc2ccc(F)cc2)[nH]c2ccccc12)C(=O)O` [Compound 7f], for which the IC50 in series [1] turned out to be 28.4 µM; in series [2], 31 µM. In addition, the CC50 in the series “in vitro [3]” and in the series “in vitro [4]” was above 100 µM throughout.
